In ChEMBL document CHEMBL1145849, “QSAR and the rational design of long-acting dual D2-receptor/beta 2-adrenoceptor agonists” (J Med Chem, 2003):

Experiments:
[1] = biological target: Beta-2 adrenergic receptor (Cavia porcellus) (UniProt Q8K4Z4); conditions: Trachea
Description: Beta-2-adrenoceptor potency was determined in rings of guinea-pig isolated trachea

physchem [2] = test: physchem
Description: Ionization constant (pKa)

[3] = biological target: Beta-2 adrenergic receptor (Cavia porcellus) (UniProt Q8K4Z4)
Description: In vitro beta-2 duration was determined using electrically stimulated guinea-pig isolated trachea superfusion system

physchem [4] = conditions: octanol/water, pH 7.4, logD

Beta-2 adrenergic receptor (Cavia porcellus), sequence (Q8K4Z4 whole entry, looked up): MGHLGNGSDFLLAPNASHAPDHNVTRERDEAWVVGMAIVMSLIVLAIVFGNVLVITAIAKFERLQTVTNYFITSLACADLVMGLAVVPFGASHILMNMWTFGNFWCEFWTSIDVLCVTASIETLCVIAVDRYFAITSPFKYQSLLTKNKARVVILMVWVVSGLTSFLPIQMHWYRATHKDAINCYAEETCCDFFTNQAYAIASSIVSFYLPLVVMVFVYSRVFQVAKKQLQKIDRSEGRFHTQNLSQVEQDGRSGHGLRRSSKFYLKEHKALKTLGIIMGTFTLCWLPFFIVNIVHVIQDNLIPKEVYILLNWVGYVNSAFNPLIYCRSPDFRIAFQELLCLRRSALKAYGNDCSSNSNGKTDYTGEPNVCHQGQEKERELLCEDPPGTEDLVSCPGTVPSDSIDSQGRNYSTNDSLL

p[A]50 [1] | pKa (physchem [2]) | Beta2 duration [3] [min] | logD (physchem [4]) | Compound
8.69 | > 8 | > 180 | 2.1 | O=S(=O)(CCCNCCc1ccc(O)c2nc(O)sc12)CCOCCCc1ccccc1
7.46 | > 8 | 33 | 1.17 | Nc1ccccc1CCOCCS(=O)(=O)CCCNCCc1ccc(O)c2nc(O)sc12
 | > 8 | 180 | 1.84 | O=S(=O)(CCCNCCc1ccc(O)c2nc(O)sc12)NCCOCCSc1ccccc1
7.4 | > 8 | 72 | 1.11 | O=S(=O)(CCCNCCc1ccc(O)c2nc(O)sc12)NCCOCc1ccccc1
 | > 8 | 180 | 1.92 | O=S(=O)(CCCNCCc1ccc(O)c2nc(O)sc12)NCCOCCc1cccc(Cl)c1
7.01 | > 8 | 32 | 0.88 | Oc1nc2c(O)ccc(CCNCCNCCCOCCc3ccccc3)c2s1
7.8 | > 8 | > 180 |  | Oc1nc2c(O)ccc(CCNCCCCCOCCc3ccccc3)c2s1
 | > 8 | > 180 | 2.59 | Cc1cc(C)cc(CCOCCS(=O)(=O)NCCNCCc2ccc(O)c3nc(O)sc23)c1
 | > 8 | 150 | 1.63 | CSc1cccc(CCOCCS(=O)(=O)CCCNCCc2ccc(O)c3nc(O)sc23)c1
 | > 8 | > 180 | 2.62 | O=S(=O)(CCCNCCc1ccc(O)c2nc(O)sc12)NCCOCCc1cccc(C(F)(F)F)c1
 | > 8 | > 180 | 2.22 | O=S(=O)(CCOCCCc1ccccc1)NCCNCCc1ccc(O)c2nc(O)sc12
 | > 8 | 180 | 1.77 | O=S(=O)(CCCNCCc1ccc(O)c2nc(O)sc12)NCCSCCc1ccccc1
7.73 | > 8 | > 180 | 2.54 | O=S(=O)(CCCNCCc1ccc(O)c2nc(O)sc12)CCOCCc1cccc2ccccc12
7.88 | > 8 | 18 |  | O=S(=O)(CCCNCCc1ccc(O)c2nc(O)sc12)CCNCCc1ccccc1
 | < 8 | 160 | 2.86 | O=S(=O)(CCCOCCc1cc2ccccc2o1)CCNCCc1ccc(O)c2nc(O)sc12
 | > 8 | 150 | 1.57 | O=S(=O)(CCCNCCc1ccc(O)c2nc(O)sc12)NCCOCCc1ccc(F)cc1
 | < 8 | 60 |  | COc1ccc(CCOCCCS(=O)(=O)CCNCCc2ccc(O)c3nc(O)sc23)cc1
 | < 8 | 160 |  | Cc1ccccc1CCOCCCS(=O)(=O)CCNCCc1ccc(O)c2nc(O)sc12
 | > 8 | 180 | 1.69 | O=S(=O)(CCOCc1cccc2ccccc12)NCCCNCCc1ccc(O)c2nc(O)sc12
 | > 8 | 180 | 1.83 | O=S(=O)(CCCOCCc1ccccc1)NCCNCCc1ccc(O)c2nc(O)sc12
 | > 8 | 60 | 1.15 | O=S(=O)(CCCNCCc1ccc(O)c2nc(O)sc12)CCOCc1ccccc1
7.92 | < 8 | 67 |  | O=S(=O)(CCCOCCc1ccc(F)cc1)CCNCCc1ccc(O)c2nc(O)sc12
 | > 8 | > 180 |  | Cc1cc(C)cc(CCOCNS(=O)(=O)CCCNCCc2ccc(O)c3nc(O)sc23)c1
 | < 8 | 40 | 2 | N#Cc1ccc(CCOCCCS(=O)(=O)CCNCCc2ccc(O)c3nc(O)sc23)cc1
 | > 8 | 60 | 1.24 | CN(CCCNCCc1ccc(O)c2nc(O)sc12)S(=O)(=O)CCOCCc1ccccc1
 | > 8 | > 180 | 2.07 | Cc1ccc(CCOCCNS(=O)(=O)CCCNCCc2ccc(O)c3nc(O)sc23)cc1

Second part, the molecule before the results:

Compound | p[A]50 [1] | pKa (physchem [2]) | Beta2 duration [3] [min] | logD (physchem [4])
CCCN(CCCOCCOCCc1ccccc1)CCc1ccc(O)c2nc(O)sc12 |  | > 8 | > 180 | 
Cc1ncsc1CCOCCCS(=O)(=O)CCNCCc1ccc(O)c2nc(O)sc12 |  | < 8 | 40 | 1.44
CC(CCCCCOCCc1ccccc1)NCCc1ccc(O)c2nc(O)sc12 (stereo not drawn) | 8.08 | > 8 | > 180 | 
O=S(=O)(Nc1ccc(CCOCCCSCCNCCc2ccc(O)c3nc(O)sc23)cc1)c1ccccc1 | 7.57 | > 8 | > 180 | 3.52
Oc1nc2c(O)ccc(CCNCCCCCCOCCc3nccs3)c2s1 | 7.78 | > 8 | > 180 | 
O=C(CCCOCCc1ccccc1)NCCNCCc1ccc(O)c2nc(O)sc12 | 7.56 | > 8 | 71 | 1.55
O=S(=O)(CCCCCCNCCc1ccc(O)c2nc(O)sc12)CCc1ccccc1 | 7 | > 8 | > 180 | 1.44
O=S(=O)(CCCOCCCc1ccccc1)CCNCCc1ccc(O)c2nc(O)sc12 | 7.35 | < 8 | 157 | 3.13
O=S(=O)(CCCOCCNc1ccccc1)CCNCCc1ccc(O)c2nc(O)sc12 |  | < 8 | 40 | 
Oc1nc2cccc(CCNCCCCCCNCCc3ccc(O)c4nc(O)sc34)c2s1 | 7.86 | > 8 | 45 | 1
Cc1ccc(CCOCCCS(=O)(=O)CCNCCc2ccc(O)c3nc(O)sc23)nc1 |  | < 8 | 40 | 1.56
Oc1nc2c(O)ccc(CCNCCCCCCNCC(F)(F)c3ccccc3)c2s1 | 6.84 | > 8 | > 180 | 1.57
CN(CCNCCc1ccc(O)c2[nH]c(=O)sc12)C(=O)CCOCCc1ccccc1 |  | > 8 |  | 1.52
NC(=O)c1ccc(CCOCCCS(=O)(=O)CCNCCc2ccc(O)c3nc(O)sc23)cc1 | 7.54 | < 8 | 50 | 1.1
Oc1nc2c(O)ccc(CCNCCC(F)(F)CCCOCCc3ccccc3)c2s1 | 7.77 | > 8 | > 180 | 3.26
CC(C)(CCCCOCCc1ccc(O)cc1)CNCCc1ccc(O)c2nc(O)sc12 | 9.03 | > 8 | > 180 | 
Oc1nc2c(O)ccc(CCNCCCOCCSCCc3ccccc3)c2s1 | 7.03 | > 8 | > 180 | 1.73
Nc1ccc(CCOCCCCCCNCCc2ccc(O)c3nc(O)sc23)cc1 | 9.4 | > 8 | > 180 | 
CN(CCc1ccc(O)c2[nH]c(=O)sc12)CCN(C)C(=O)CCOCCc1ccccc1 |  | > 8 |  | 
CN(CCNCCc1ccc(O)c2nc(O)sc12)C(=O)CCOCCc1ccccc1 | 8.29 |  | 116 | 
O=S(=O)(CCCOCCSc1ccccc1)CCNCCc1ccc(O)c2nc(O)sc12 |  | < 8 | 120 | 2.68

Compound | p[A]50 [1] | pKa (physchem [2]) | Beta2 duration [3] [min] | logD (physchem [4])
CC(C)(CCCCOCCc1ccccc1N)CNCCc1ccc(O)c2nc(O)sc12 | 7.58 | > 8 | > 180 | 
CC(C)(CNCCc1ccc(O)c2nc(O)sc12)CSCCOCCc1ccccc1N | 7.13 | > 8 | > 180 | 3.44
CS(=O)(=O)Nc1ccc(CCOCCCS(=O)(=O)CCNCCc2ccc(O)c3nc(O)sc23)cc1 |  | < 8 | 40 | 1.34
Oc1nc2c(O)ccc(CCNCCCCCCOCCc3ccccn3)c2s1 | 8.12 | > 8 | 109 | 
C[C@@H](Cc1ccccc1)OCCCS(=O)(=O)CCNCCc1ccc(O)c2nc(O)sc12 |  | > 8 | 180 | 1.81
C[C@@H](COCCCS(=O)(=O)CCNCCc1ccc(O)c2nc(O)sc12)c1ccccc1 |  | < 8 | 60 | 2.32
CC(C)(CCCCOCCc1cccc(N)c1)CNCCc1ccc(O)c2nc(O)sc12 | 8.39 | > 8 | > 180 | 
CC(C)(CCCCOCCc1ccc([N+](=O)[O-])cc1)CNCCc1ccc(O)c2nc(O)sc12 | 6.35 | > 8 | > 180 | 
Oc1nc2c(O)ccc(CCNCCCSCCCOCCc3ccccc3)c2s1 | 7.32 | > 8 | > 180 | 
CN(CCCOCCOCCc1ccccc1)CCc1ccc(O)c2nc(O)sc12 |  | > 8 | > 180 | 
Cc1ccc(CCCOCCS(=O)(=O)CCCNCCc2ccc(O)c3nc(O)sc23)s1 |  | > 8 | > 180 | 2.41
Oc1nc2c(O)ccc(CCNCCCCCOCCCc3ccccc3)c2s1 | 7 | > 8 | > 180 | 
CCN(CCCOCCOCCc1ccccc1)CCc1ccc(O)c2nc(O)sc12 |  | > 8 | > 180 | 
Oc1nc2c(O)ccc(CCNCCCSCCOCCc3cccc4ccccc34)c2s1 | 5.8 | > 8 | > 180 | 
O=S(=O)(CCCOCCc1nccc2ccccc12)CCNCCc1ccc(O)c2nc(O)sc12 |  | < 8 | 50 | 2.35
CN(CCc1ccc(O)c2nc(O)sc12)CCN(C)C(=O)CCOCCc1ccccc1 |  |  | > 180 | 
CC(C)(CCCCCOCCc1ccccc1)NCCc1ccc(O)c2nc(O)sc12 | 8.42 | > 8 | > 180 | 
Oc1ccc(CCOCCCCCCNCCc2ccc(O)c3nc(O)sc23)cc1 | 8.81 | > 8 | > 180 | 
CC(C)(CCCCOCCc1ccc(N)cc1)CNCCc1ccc(O)c2nc(O)sc12 | 8.86 | > 8 | > 180 | 
NC(=O)Nc1ccc(CCOCCCCCCNCCc2ccc(O)c3nc(O)sc23)cc1 | 9.2 | > 8 | 140 | 
